assay: Binding affinity to beta cyclodextrin

Compound	log Ks
CCOC(=O)c1ccccc1 [ETHYL BENZOATE]	2.73
C[C@]12C[C@H](O)[C@H]3[C@@H](CCC4=CC(=O)CC[C@@]43C)[C@@H]1CC[C@@H]2C(=O)CO [CORTICOSTERONE]	3.85
C[C@H](CCC(=O)O)[C@H]1CC[C@H]2[C@@H]3[C@H](O)C[C@@H]4C[C@H](O)CC[C@]4(C)[C@H]3C[C@H](O)[C@]12C [CHOLIC ACID]	3.5
OC1CCCCCC1 [CYCLOHEPTANOL]	3.23
O=C(O)c1ccc(O)cc1 [PARABEN]	2.2
CC(C)c1cccc(O)c1	3.44
c1ccc2sccc2c1 [BENZOTHIOPHENE]	3.23
CCC1(c2ccccc2)C(=O)NC(=O)NC1=O [PHENOBARBITAL]	3.22
c1ccc2c(c1)Nc1ccccc1O2 [PHENOXAZINE]	2.69
ClCc1ccccc1 [(CHLOROMETHYL)BENZENE]	2.45
O=C(O)CC1CC2CCC1C2 (centres undefined)	3.59
CCCCOC(=O)c1ccc(N)cc1 [BUTAMBEN]	3.19
CCCC(=O)O[C@]1(C(=O)CO)CC[C@H]2[C@@H]3CCC4=CC(=O)CC[C@]4(C)[C@H]3[C@@H](O)C[C@@]21C [HYDROCORTISONE BUTYRATE]	3.23
Cc1cccc(Nc2ccccc2C(=O)O)c1C [MEFENAMIC ACID]	2.49
c1ccc(Cn2ccnc2)cc1 [BENZYLIMIDAZOLE]	2.61
Nc1ccc(S(=O)(=O)Nc2ccccn2)cc1 [SULFAPYRIDINE]	2.7
CCC(C)(C)O [AMYLENE HYDRATE]	1.91
CC(C)C(C)O (centres undefined)	1.92
CC(=O)Oc1ccc([N+](=O)[O-])cc1 [4-NITROPHENYL ACETATE]	2.13
O=C(O)/C=C/c1cccc(O)c1	2.56
C[C@H]1C[C@H]2[C@@H]3CCC4=CC(=O)C=C[C@]4(C)[C@@]3(F)[C@@H](O)C[C@]2(C)[C@@]1(O)C(=O)CO [BETAMETHASONE]	3.73
CCCCC[C@H](O)/C=C/[C@H]1[C@H](O)CC(=O)[C@@H]1C/C=C\CCCC(=O)O [DINOPROSTONE]	3.09
N#Cc1ccccc1 [BENZONITRILE]	2.23
CCOc1ccc(O)cc1 [1-hydroxy-4-ethoxybenzene]	2.33

Compound	log Ks
Nc1ccc(S(=O)(=O)Nc2ncccn2)cc1 [SULFADIAZINE]	2.52
CCCC(C)C1(CC)C(=O)NC(=S)NC1=O (centres undefined) [THIOPENTAL]	3.28
CN(C)c1ccccc1	2.36
CCCOC/C(=N\c1ccc(Cl)cc1C(F)(F)F)n1ccnc1 [TRIFLUMIZOLE]	2.66
O=C(O)c1ccccc1Nc1cccc(C(F)(F)F)c1 [FLUFENAMIC ACID]	3.1
CC(C)Cc1cccc(O)c1	4.21
CCC(C)CO (centres undefined)	2.08
CC(=O)Nc1ccccc1 [ACETANILIDE]	2.2
CCCc1cccc(O)c1	3.28
Nc1ccc(S(=O)(=O)Nc2ccnn2-c2ccccc2)cc1 [SULFAPHENAZOLE]	2.35
C[C@H](CCC(=O)O)[C@H]1CC[C@H]2[C@@H]3[C@@H](O)C[C@@H]4C[C@H](O)CC[C@]4(C)[C@H]3CC[C@]12C [URSODIOL]	4.51
C=CCC1(CC=C)C(=O)NC(=O)NC1=O [ALLOBARBITAL]	1.98
CC(=O)c1ccc(S(=O)(=O)NC(=O)NC2CCCCC2)cc1 [ACETOHEXAMIDE]	2.94
COc1cc(O)cc(OC)c1	2.34
CCCC(C)O (centres undefined) [2-PENTANOL]	1.49
Cc1ccnc(NS(=O)(=O)c2ccc(N)cc2)n1 [SULFAMERAZINE]	1.97
c1ccc2nc3ccccc3cc2c1 [ACRIDINE]	2.33
CC(=O)Oc1ccc(I)cc1	3
CC(=O)Oc1cccc(I)c1	3.07
CC(=O)Oc1cccc(CC(C)C)c1	3.83
CCCCc1cccc(OC(C)=O)c1	3.66
O=[N+]([O-])c1ccccc1 [NITROBENZENE]	2.04
O=C(O)c1ccccc1Nc1ccccc1 [FENAMIC ACID]	2.89
CC(=O)Oc1ccc(C)cc1	2.49

Compound	log Ks
C1CCOC1 [TETRAHYDROFURAN]	1.47
NS(=O)(=O)c1cc2c(cc1Cl)NCNS2(=O)=O [HYDROCHLOROTHIAZIDE]	1.76
CC(=O)Oc1cccc(Br)c1	2.67
CCCCCCCO [1-HEPTANOL]	2.85
O=C(O)CC12CC3CC(CC(C3)C1)C2	4.32
Oc1cc(Br)cc(Br)c1	2.56
Oc1cccc(Cl)c1	2.28
O=C(O)CCC(=O)c1ccc(-c2ccccc2)cc1 [FENBUFEN]	2.63
CC(=O)Oc1ccc(Br)cc1	2.68
CCCCn1ccnc1	2.19
CC(C)CCO [3-METHYLBUTANOL]	2.25
CN1CCN=C(c2ccccc2)c2cc(Cl)ccc21 [MEDAZEPAM]	2.4
C[C@]12CCC(=O)C=C1CC[C@@H]1[C@@H]2[C@@H](O)C[C@@]2(C)[C@H]1CC[C@]2(O)C(=O)CO [HYDROCORTISONE]	3.6
CCCCNC(=O)NS(=O)(=O)c1ccc(N)cc1 [CARBUTAMIDE]	2.29
OCCCO [1,3-PROPANEDIOL]	0.67
CCOc1cccc(OC(C)=O)c1	2.49
Nc1ccccc1 [ANILINE]	1.6
COCCO [2-METHOXYETHANOL]	0.22
CC(C)=O [ACETONE]	0.42
CC(=O)Oc1cccc(C#N)c1	1.49
CCCc1cccc(OC(C)=O)c1	3.28
Cc1cccc(/C=C/C(=O)O)c1	2.93
CC(=O)Oc1ccc(F)cc1	2.11
Cc1ccc(Cl)c(Nc2ccccc2C(=O)O)c1Cl [MECLOFENAMIC ACID]	2.67

Compound	log Ks
CC1(C)O[C@@H]2C[C@H]3[C@@H]4CCC5=CC(=O)C=C[C@]5(C)[C@@]4(F)[C@@H](O)C[C@]3(C)[C@]2(C(=O)CO)O1 [TRIAMCINOLONE ACETONIDE]	3.51
CC(C)Oc1ccc(O)cc1	2.86
COC1=CC(=O)C[C@@H](C)[C@]12Oc1c(Cl)c(OC)cc(OC)c1C2=O [GRISEOFULVIN]	1.47
CC(C)(C)O [TERT-BUTANOL]	1.68
CC#N [ACETONITRILE]	-0.27
Cc1noc(NS(=O)(=O)c2ccc(N)cc2)c1C [SULFISOXAZOLE]	2.32
CO [METHYL ALCOHOL]	-0.49
OCc1ccccc1 [BENZYL ALCOHOL]	1.71
c1ccc2c(c1)cnc1ccccc12 [PHENANTHRIDINE]	2.57
Nc1ccc(-c2ccc(N)cc2)cc1 [BENZIDINE]	3.35
O=[N+]([O-])c1ccc(Cl)cc1	2.15
CC(=O)Oc1cccc(F)c1	1.91
Oc1ccc(F)cc1	1.73
OCCCCCO [1,5-PENTANEDIOL]	1.22
CCc1ccc(O)cc1	2.69
Cc1cc(NS(=O)(=O)c2ccc(N)cc2)nc(C)n1 [SULFISOMIDINE]	2.1
Nc1ccc([N+](=O)[O-])cc1 [4-NITROANILINE]	2.48
CCC(=O)c1ccc(O)cc1 [PAROXYPROPIONE]	2.63
CCC1(C2=CCCCC2)C(=O)NC(=O)NC1=O [CYCLOBARBITAL]	2.71
CCOc1ccccc1 [PHENETOLE]	2.49
CCCc1ccc(OC(C)=O)cc1	3.15
Cc1ccc(O)cc1 [p-CRESOL]	2.4

Reference: ChEMBL document CHEMBL1140846, “Convenient QSAR model for predicting the complexation of structurally diverse compounds with beta-cyclodextrins” (Bioorg Med Chem, 2009)
